In patent US7485651B2, “Compounds with activity on muscarinic receptors” (Acadia Pharmaceuticals, Inc., priority 1998, dated 2009):

Columns and labels:
[1] = molecular target: T1, α-adrenergic receptor subtype 2B (Homo sapiens, UniProt P18089); assay: Test against other receptors: α-adrenergic 2B; assay type: cell-based
T1 sequence (P18089 1-450): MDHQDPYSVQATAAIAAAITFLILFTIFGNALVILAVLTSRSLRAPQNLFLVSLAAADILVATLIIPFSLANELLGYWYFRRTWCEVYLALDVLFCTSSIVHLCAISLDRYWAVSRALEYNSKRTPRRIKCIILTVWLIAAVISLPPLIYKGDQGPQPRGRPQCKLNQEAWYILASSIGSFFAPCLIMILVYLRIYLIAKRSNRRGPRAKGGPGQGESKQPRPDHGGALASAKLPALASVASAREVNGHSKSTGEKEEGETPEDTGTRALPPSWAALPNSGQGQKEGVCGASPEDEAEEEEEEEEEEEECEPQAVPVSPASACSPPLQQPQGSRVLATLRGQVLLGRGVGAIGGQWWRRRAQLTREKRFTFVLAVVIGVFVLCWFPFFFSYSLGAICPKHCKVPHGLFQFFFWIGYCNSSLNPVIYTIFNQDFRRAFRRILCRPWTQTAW

serotonin 5-HT1A = molecular target: T2, serotonin 5-HT1A (Homo sapiens, UniProt P08908); assay: Test against other receptors: serotonin 5-HT1A; assay type: cell-based
T2 sequence (P08908 1-422): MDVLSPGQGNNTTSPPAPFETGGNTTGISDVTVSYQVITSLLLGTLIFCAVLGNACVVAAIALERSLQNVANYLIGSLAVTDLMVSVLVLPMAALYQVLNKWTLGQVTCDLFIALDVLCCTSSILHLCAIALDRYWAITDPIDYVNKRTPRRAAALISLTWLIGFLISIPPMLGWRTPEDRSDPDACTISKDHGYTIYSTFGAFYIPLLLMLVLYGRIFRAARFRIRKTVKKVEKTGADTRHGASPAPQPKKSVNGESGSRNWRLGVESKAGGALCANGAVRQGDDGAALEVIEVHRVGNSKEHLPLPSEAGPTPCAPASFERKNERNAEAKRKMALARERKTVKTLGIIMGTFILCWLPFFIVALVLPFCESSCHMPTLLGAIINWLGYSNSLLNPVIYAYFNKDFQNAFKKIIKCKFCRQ

## CCCCC1CCN(CCCC(=O)c2ccccc2C)CC1 [Compound A, 4-n-Butyl-1-[4-(2-methylphenyl)-4-oxo-1-butyl]piperidine]
[1]
  agonist activity: no significant activity
  inhibition of receptor responses (antagonist experiments): did not inhibit
Serotonin 5-HT1A
  agonist activity: no significant activity
  inhibition of receptor responses (antagonist experiments): did not inhibit
